Experimental data as given in ChEMBL document CHEMBL3860042, “Nucleoside Phosphate and Phosphonate Prodrug Clinical Candidates” (J Med Chem, 2016).

Experiments:
[1] = Tmax in human at 0.025 to 2 mg/kg dosed as single and multiple doses; assay type: ADME, organism-based; settings: in vivo
[2] = Half life in human at 0.025 mg/kg dosed as single and multiple doses; assay type: ADME, organism-based; settings: in vivo
[3] = Half life in human at 1.5 mg/kg dosed as single and multiple doses; assay type: ADME, organism-based; settings: in vivo
[4] = system: Ebolavirus; test: Antiviral activity against Ebolavirus assessed as reduction in viral replication; assay type: functional; settings: Orthoebolavirus
[5] = Half life in rhesus monkey at 10 mg/kg, iv; assay type: ADME, organism-based, Macaca mulatta; settings: in vivo
[6] = Drug metabolism in PBMC (unknown origin) assessed as half life for active triphosphate formation; assay type: ADME, cell-based
[7] = system: Ebolavirus; test: Antiviral activity against Ebolavirus infected in PBMC (unknown origin) assessed as reduction in viral replication after 24 hrs; assay type: functional
[8] = system: Ebolavirus; test: Antiviral activity against Ebolavirus infected in rhesus monkey assessed as protection against viral disease administered intravenously as once daily regimen; assay type: functional
[9] = organism: Mus musculus; test: Toxicity in mouse assessed as body weight loss; assay type: organism-based; settings: in vivo
[10] = Toxicity in patients with solid malignancies assessed as incidence of anemia; settings: human, in vivo
[11] = Toxicity in patients with solid malignancies assessed as incidence of fatigue; settings: human, in vivo
[12] = Toxicity in patients with solid malignancies assessed as incidence of transaminitis; settings: human, in vivo
[13] = Toxicity in patients with solid malignancies assessed as incidence of thrombocytopenia; settings: human, in vivo

What does the source list for `CCCCCCCCCCCCCCCCOCCCOP(=O)(O)CO[C@H](CO)Cn1ccc(N)nc1=O` [BRINCIDOFOVIR]?
Tmax [1]: 7 to 15 h; half-life [2]: 6.15 h; half-life [3]: 32.7 h

What does the source list for `CCC(CC)OC(=O)[C@H](C)N[P@@](=O)(OC[C@H]1O[C@@](C#N)(c2ccc3c(N)ncnn23)[C@H](O)[C@@H]1O)Oc1ccccc1`?
EC50 [4]: 60 to 140 nM; half-life [5]: 0.39 h; t1/2 [6]: 14 h; inhibition (INH) [7]: >50%; Activity [8]: 100%

Which results are given for `C[C@H](NP(=O)(OC[C@H]1O[C@@H](n2ccc(N)nc2=O)C(F)(F)[C@@H]1O)Oc1ccccc1)C(=O)OCc1ccccc1` (some centres undefined) [FOSGEMCITABINE PALABENAMIDE]?
Activity [9]: < 2%; Activity [10]: 67%; Activity [11]: 67%; Activity [12]: 64%; Activity [13]: 53%

For `N#C[C@@]1(c2ccc3c(N)ncnn23)O[C@H](CO)[C@@H](O)[C@H]1O` [GS-441524], which EC50 [4] is on record?
Its EC50 is 770 to 20000 nM.
